Like-named read-outs stand apart in the source and are kept apart here. Ends that are not written are not given here. Peptide text beside a SMILES is read from it. * marks the point of attachment. Octanoyl(6-Me) = CCC(C)CCCCC(=O)*
What was measured:
MonoMac6 cells = experiment: Release of TNFα from MonoMac6 cells stimulated by bacteria killed with antibiotics or peptides (ELISA); format: cell-based; details: E. coli strain 0:111 incubated over night with agent, then 15 hours on 10^5 MonoMac6 cells; FIG. 5
Description: Bacteria can be killed by different antibiotics, targeting different molecules essential for bacterial survival. When Gram-negative bacteria are killed, released LPS can stimulate production of cytokines, such as TNFα, or other inflammatory mediators. Comparison of well-established antimicrobial agents acting through different cellular targets with compounds of this invention were done in the following manner: bacteria (E. coli strain 0:111) were grown in LB medium to the absorbance at 600 nm of 0.4 and diluted 2500 fold in RPMI medium with added glucose. Different concentrations of antibiotics or peptides from this invention were added and incubated over night. 80 μl of cell suspension was added to the 100 μl containing 10^5 MonoMac6 cells and after 15 hours the release of TNFα to the medium was determined using ELISA test.

C. neoformans ATCC 32045 = format: cell-based
Summary of the method: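 Fungal inoculum was about 1×10^5 to 5×10^5 CFU/ml in 2×YM broth, added to peptides dispensed at 1 mg/ml to 1 μg/ml in twofold serial dilutions. After 72 hrs at 26° C, relative growth was read as OD620. IC50 values came from sigmoidal curve fitting.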

LPS Re595 = experiment: Local Shwartzmann reaction in rabbit (lipid A-induced hemorrhagic dermonecrosis); format: in vivo, New Zealand White rabbits; details: i.d. injection in shaved dorsal region; open necrosis observed after 72-96 hours; minimum 3 injections in minimum 3 rabbits
Description: (§1) The principle of lipid A-induced pro-inflammatory cytokine activity leading to hemorrhagic dermonecrosis (classical Shwartzmann reaction) was tested in rabbit, an animal model very close to humans in terms of sensitivity to LPS activity, and was compared to the inhibition of the lipid A-induced LAL enzymatic cascade activation leading to clot. Thereby, New Zealand White rabbits were injected in the shaved dorsal region with S. minnesota Re595 lipid A alone or with peptide 1:100 (w/w) (5 μg in 0.2 ml saline buffer; route i.d.). […] Polymyxin B (PmB) was used as a control.

LPS S. Minnesota Re595 = experiment: Endpoint LAL activity (Limulus gel-clotting test), inhibition of lipid A-induced LAL enzymatic cascade; format: biochemical; details: sensibility 0.125 EU/ml, peptide:LPS 100:1 (w/w), minimum of 6 tests in triplicate
Description: as §1

E. coli (strain 0:111) = experiment: Antimicrobial assay with peptide immobilized on magnetic particles; format: cell-based; details: over night
Description: Peptide P2-32 (500 μg) was covalently bound to the cyanuric chloride-activated magnetic particles (10 mg) (Chemicell, Product number 1314) using phosphate buffer saline pH=7.5. After mixing the suspension on a shaker for 2 hours at room temperature the blocking buffer (PBS pH=7.5 and 2% ethanolamine) were added and mixed the suspension on a shaker for 30 minutes at room temperatures. The particles were washed twice with PBS. Immobilized peptides were tested against E. coli (strain 0:111) grown in LB medium to the absorbance at 600 nm of 0.4 and diluted 2500 fold in LB medium. Different concentrations of magnetic particles immobilized with peptides were added and incubated over night.

E. coli LPS = experiment: Mouse model of acute endotoxemia (LPS plus galactosamine); format: in vivo, ICR-CD1 mice; details: 150 μg intraperitoneal immediately after 0.3 μg E. coli LPS + 18 mg galactosamine; monitored until 168 hours
Description: Mice are remarkably resistant to LPS-mediated septic shock. However, the sensitivity of mice to endotoxin can be potentiated by coinjecting LPS with galactosamine. Groups of 16-18 female ICR-CD1 mice of 20-25 g of weight were intraperitoneally injected with 200 μl of pyrogen-free saline containing a mixture of 0.3 μg of E. coli LPS and 18 mg of galactosamine. Previous experiments allowed to determine that such a combination was lethal for 90% (LD90) of the animals 48 h after the injection. Immediately after this challenge, mice received a second intraperitoneal injection at a different site of the abdomen containing 150 μg of the peptide dissolved in 150 μl of 10% DMF pyrogen-free saline. In all the experiments a group of mice was left untreated whereas another group received 150 μg of polymyxin B. Mortality of the animals was monitored at daily intervals until 168 hours postchallenge.

[1] = 50% growth inhibition, OD620, 72 hrs at 26° C., 2×YM broth
[2] = lowest concentration that resulted in 2% growth, OD620, 72 hrs at 26° C., 2×YM broth

Question: Which “release of TNFα / stimulation of the monocytes” value (MonoMac6 cells) does the source give for penicilin here?
Answer: high stimulation of the monocytes

Question: For `CC[C@H](C)[C@H](NC(=O)[C@H](CCCNC(=N)N)NC(=O)[C@@H](NC(=O)[C@H](CCCNC(=N)N)NC(=O)[C@H](Cc1c[nH]c2ccccc12)NC(=O)[C@H](Cc1ccccc1)NC(=O)[C@@H]1CCCN1)[C@@H](C)CC)C(=O)N[C@@H](CCCNC(=N)N)C(=O)N[C@@H](CCCNC(=N)N)C(N)=O` [VS1-22, PFWRIRIRR-NH2] (H-PFWRIRIRR-NH2; N-terminus assumed), which “average IC50” value (C. neoformans ATCC 32045; [1]) is on record?
Answer: 2 µg/mL

Question: And the “average MIC” value (C. neoformans ATCC 32045; [2])?
Answer: 8 µg/mL

Question: What about the “Local Shwartzmann reaction in rabbit peptide: LPS Re595 100:1 (w/w)” value (LPS Re595) of the same compound?
Answer: NEGATIVE

Question: What about the “release of TNFα / stimulation of the monocytes” value (MonoMac6 cells) of the same compound?
Answer: significantly inhibited the release of TNFα

Question: What about the “Endpoint LAL activity peptide: LPS Re595 100:1 (w/w)” value (LPS S. Minnesota Re595) of the same compound?
Answer: NEGATIVE

Question: `CCC(C)CCCCC(=O)N1CCC[C@H]1C(=O)N[C@@H](Cc1ccccc1)C(=O)N[C@@H](Cc1c[nH]c2ccccc12)C(=O)N[C@@H](CCCNC(=N)N)C(=O)N[C@H](C(=O)N[C@@H](CCCNC(=N)N)C(=O)N[C@H](C(=O)N[C@@H](CCCNC(=N)N)C(=O)N[C@@H](CCCNC(=N)N)C(N)=O)[C@@H](C)CC)[C@@H](C)CC` (stereo partly drawn) [VS1-53, 6-methyloctanoyl PFWRIRIRR-NH2] ({Octanoyl(6-Me)}-PFWRIRIRR-NH2) was tested. Which “average IC50” value (C. neoformans ATCC 32045; ATCC 32045, 72 h) did it give?
Answer: 6 µg/mL

Question: And the “average MIC” value (C. neoformans ATCC 32045; ATCC 32045, 72 h)?
Answer: 16 µg/mL

Question: What about the “release of TNFα / stimulation of the monocytes” value (MonoMac6 cells) of the same compound?
Answer: significantly inhibited the release of TNFα

Question: For “FIWRWRWR-NH2 (also: bound to magnetic particles) [Peptide P2-32]”, which bacterial growth (E. coli (strain 0:111); 0.25 mg immobilized magnetic particles, 100 μl diluted E. coli in LB) is on record?
Answer: not-inhibited

Question: What about the bacterial growth (E. coli (strain 0:111); 0.5 mg immobilized magnetic particles, 100 μl diluted E. coli in LB) of the same compound?
Answer: not-inhibited

Question: What about the bacterial growth (E. coli (strain 0:111); 1 mg immobilized magnetic particles, 100 μl diluted E. coli in LB) of the same compound?
Answer: inhibited

Question: And the bacterial growth (E. coli (strain 0:111); 2.5 mg immobilized magnetic particles, 100 μl diluted E. coli in LB)?
Answer: inhibited

Question: What about the bacterial growth (E. coli (strain 0:111); 5 mg immobilized magnetic particles, 100 μl diluted E. coli in LB) of the same compound?
Answer: inhibited

Question: What about the bacterial growth (E. coli (strain 0:111); 50, 25 and 10 mg/ml concentrations of immobilized magnetic particles) of the same compound?
Answer: prevented bacterial growth

Question: With `O=C(N[C@H](CO)[C@H](O)c1ccc([N+](=O)[O-])cc1)C(Cl)Cl` [chloramphenicol] as the compound, how does the “release of TNFα / stimulation of the monocytes” value (MonoMac6 cells) read?
Answer: high stimulation of the monocytes

Question: Which “protection against endotoxic shock (mortality)” value (E. coli LPS) does the source give for polymyxin B [PmB, reference compound] here?
Answer: did not confer significant protection

Question: And the “Local Shwartzmann reaction in rabbit peptide: LPS Re595 100:1 (w/w)” value (LPS Re595)?
Answer: NEGATIVE

Question: And the “release of TNFα / stimulation of the monocytes” value (MonoMac6 cells)?
Answer: significantly inhibited the release of TNFα

Question: What about the “Endpoint LAL activity peptide: LPS Re595 100:1 (w/w)” value (LPS S. Minnesota Re595) of the same compound?
Answer: NEGATIVE

Question: Which results are given for `CC[C@H](C)[C@H](NC(=O)[C@H](CC(N)=O)NC(=O)[C@H](CCCNC(=N)N)NC(=O)[C@H](CCC(N)=O)NC(=O)[C@H](Cc1c[nH]c2ccccc12)NC(=O)[C@@H](N)Cc1ccccc1)C(=O)N[C@@H](CCCNC(=N)N)C(=O)N[C@@H](CCCCN)C(=O)N[C@@H](Cc1c[nH]c2ccccc12)C(=O)N[C@@H](CCCNC(=N)N)C(N)=O` [VS1-15, FWQRNIRKWR-NH2] (H-FWQRNIRKWR-NH2)?
Answer: average IC50 (C. neoformans ATCC 32045; [1]): 5 µg/mL; average MIC (C. neoformans ATCC 32045; [2]): 16 µg/mL; Local Shwartzmann reaction in rabbit peptide: LPS Re595 100:1 (w/w) (LPS Re595): NEGATIVE; Endpoint LAL activity peptide: LPS Re595 100:1 (w/w) (LPS S. Minnesota Re595): NEGATIVE

Source: patent publication US7960339B2, “Antimicrobial peptides” (Österreichische Akademie der Wissenschaften, priority 2006, dated 2011)
